For data set [1], the system named is HIV. The data set can be described thus: Viability, HIV replication and cytopathic effect in transduced T cells infected with HIV with GCV. In kind it is cell-based. An excerpt:
FIG. 10 depicts photographic images of cells in accordance with experimental embodiments.
(Damage to the host cells serves as the signal in cytopathic effect assays.)

For data set [2] the following is noted: herpes (CMV) treatment in HIV infected patients; cited from earlier work.

In the case of `Nc1nc(O)c2ncn(COC(CO)CO)c2n1` [Ganciclovir], the “viability of transduced T cells infected with HIV” value in data set [1] is on record as “increased viability”. Further, in data set [1] (in the presence of GCV), the HIV replication entry was “diminished HIV replication”. Also, the “toxicity or side effects” value in data set [2] is recorded as “without significant toxicity or side effects”.

(Values after patent US20170218397A1, “C[…] GENE THERAPY VECTOR FOR […] CELL MO[…] ANTI HIV GENE THERAPY” (Texas Tech University System, priority 2014, published 2017).)
